Results reported in BindingDB's records for doi:10.1016/j.bmcl.2007.06.023 (Merck Frosst Centre For Therapeutic Research, 2007).

Experiments:
Assay in all cases: Enzyme Inhibition Assay
Cathepsin K = target: T1, Cathepsin K (Oryctolagus cuniculus, UniProt P43236)
T1 sequence (P43236 whole entry): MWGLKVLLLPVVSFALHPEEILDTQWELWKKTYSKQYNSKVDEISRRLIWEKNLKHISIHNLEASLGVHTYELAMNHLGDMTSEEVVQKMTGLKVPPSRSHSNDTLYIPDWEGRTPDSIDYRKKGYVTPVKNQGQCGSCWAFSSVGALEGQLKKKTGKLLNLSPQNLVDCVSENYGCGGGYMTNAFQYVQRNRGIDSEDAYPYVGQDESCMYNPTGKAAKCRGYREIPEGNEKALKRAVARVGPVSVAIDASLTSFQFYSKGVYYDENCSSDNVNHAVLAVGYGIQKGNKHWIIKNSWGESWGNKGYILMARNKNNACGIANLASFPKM
Description: (§1) Prior to the addition of substrate, different concentrations of the inhibitor ranging from 100 uM to 0.2 nM were preincubated for 15 min with enzyme to allow the establishment of the enzyme-inhibitor complex. The proteolytic cleavage of N-acyl aminocoumarins by cathepsins was conducted in 96-well plate format and the plate read using a Spectramax (Molecular Devices) plate reader. The excitation wavelength was 355 nm and the emission wavelength was 460 nm for peptidyl-AMC substrates. The percent inhibition of the reaction was calculated from a control reaction containing only vehicle. IC50 curves were generated by fitting percent inhibition values to a four parameter logistic model (SOFTMAX PRO, Molecular Devices).

Cathepsin S = Cathepsin S (Homo sapiens, UniProt P25774); conditions: pH 6.5; 22 °C
Cathepsin S, sequence (P25774 whole entry): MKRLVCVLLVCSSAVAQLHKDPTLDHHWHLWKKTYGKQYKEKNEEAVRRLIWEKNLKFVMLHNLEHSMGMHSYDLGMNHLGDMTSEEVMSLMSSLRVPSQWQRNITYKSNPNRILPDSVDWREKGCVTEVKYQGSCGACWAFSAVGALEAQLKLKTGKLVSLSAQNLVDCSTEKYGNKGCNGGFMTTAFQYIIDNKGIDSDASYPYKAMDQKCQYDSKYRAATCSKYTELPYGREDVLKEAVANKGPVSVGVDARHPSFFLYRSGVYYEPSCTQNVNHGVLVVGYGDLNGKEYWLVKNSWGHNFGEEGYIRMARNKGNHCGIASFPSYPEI
Description: as §1

Procathepsin L = Procathepsin L (Homo sapiens, UniProt P07711)
Procathepsin L, sequence (P07711 whole entry): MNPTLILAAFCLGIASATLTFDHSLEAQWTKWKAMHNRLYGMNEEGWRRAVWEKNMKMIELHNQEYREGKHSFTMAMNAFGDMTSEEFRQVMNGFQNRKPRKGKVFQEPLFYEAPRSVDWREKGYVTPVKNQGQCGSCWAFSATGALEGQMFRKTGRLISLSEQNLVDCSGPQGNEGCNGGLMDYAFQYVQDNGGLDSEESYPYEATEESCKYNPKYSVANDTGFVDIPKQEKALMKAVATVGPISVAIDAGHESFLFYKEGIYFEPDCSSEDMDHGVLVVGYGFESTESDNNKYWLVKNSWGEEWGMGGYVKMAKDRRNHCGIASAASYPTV
Description: as §1

## CC(C)(c1ccc(F)cc1)S(=O)(=O)C[C@H](N[C@@H](c1ccc(F)cc1)C(F)(F)F)C(=O)NC1(C#N)CC1 [(2R)-N-(1-cyanocyclopropyl)-3-{[2-(4-fluorophenyl)propane-2-]sulfonyl}-2-{[(1S)-2,2,2-trifluoro-1-(4-fluorophenyl)ethyl]amino}propanamide]
Cathepsin K
  IC50: > 10000 nM

## N#CC1(NC(=O)[C@H](CS(=O)(=O)Cc2cccc(F)c2F)N[C@@H](c2ccc(F)cc2)C(F)(F)F)CC1 [(2R)-N-(1-cyanocyclopropyl)-3-{[(2,3-difluorophenyl)methane]sulfonyl}-2-{[(1S)-2,2,2-trifluoro-1-(4-fluorophenyl)ethyl]amino}propanamide]
Cathepsin K
  IC50: > 10000 nM

## CC(C)C[C@@H](NC(=O)N1CCOCC1)C(=O)N[C@@H](C=CS(=O)(=O)c1ccccc1)CCc1ccccc1
Cathepsin S
  IC50: 1.2 nM
Cathepsin K
  IC50: 6.2 nM

## N#CC1(NC(=O)[C@H](CS(=O)(=O)Cc2cccc(F)c2F)N[C@@H](c2ccccc2)C(F)(F)F)CC1 [(2R)-N-(1-cyanocyclopropyl)-3-{[(2,3-difluorophenyl)methane]sulfonyl}-2-{[(1S)-2,2,2-trifluoro-1-phenylethyl]amino}propanamide]
Cathepsin K
  IC50: > 10000 nM

## N#CC1(NC(=O)[C@H](CS(=O)(=O)Cc2ccc(F)cc2)N[C@@H](c2ccccc2)C(F)(F)F)CC1 [(2R)-N-(1-cyanocyclopropyl)-3-{[(4-fluorophenyl)methane]sulfonyl}-2-{[(1S)-2,2,2-trifluoro-1-phenylethyl]amino}propanamide]
Cathepsin K
  IC50: > 10000 nM

## N#CC1(NC(=O)[C@H](CS(=O)(=O)Cc2c(Cl)cccc2Cl)N[C@@H](c2ccc(F)cc2)C(F)(F)F)CC1 [(2R)-N-(1-cyanocyclopropyl)-3-{[(2,6-dichlorophenyl)methane]sulfonyl}-2-{[(1S)-2,2,2-trifluoro-1-(4-fluorophenyl)ethyl]amino}propanamide]
Procathepsin L
  IC50: 249 nM
Cathepsin S
  IC50: 0.7 nM
Cathepsin K
  IC50: > 10000 nM

## N#CC1(NC(=O)[C@H](CS(=O)(=O)Cc2ccccc2-c2ccccc2)N[C@@H](c2ccc(F)cc2)C(F)(F)F)CC1 [(2R)-N-(1-cyanocyclopropyl)-3-{[(2-phenylphenyl)methane]sulfonyl}-2-{[(1S)-2,2,2-trifluoro-1-(4-fluorophenyl)ethyl]amino}propanamide]
Cathepsin K
  IC50: > 10000 nM
